This is an account of results in US20250108038A1 (priority 2023, published 2025).

Broadly, the solubility (kinetic) is solubility judged after dilution from a stock solution rather than from solid. In general, inhibition refers to the percentage by which the read-out fell short of the control. Lower therefore signals a weak effect.

The nature of one series: physchem. As to conditions: kinetic from dmso stock.
The target of a further series is T1, CYP2B6 (Homo sapiens, UniProt P20813).
T1 sequence (P20813 1-491): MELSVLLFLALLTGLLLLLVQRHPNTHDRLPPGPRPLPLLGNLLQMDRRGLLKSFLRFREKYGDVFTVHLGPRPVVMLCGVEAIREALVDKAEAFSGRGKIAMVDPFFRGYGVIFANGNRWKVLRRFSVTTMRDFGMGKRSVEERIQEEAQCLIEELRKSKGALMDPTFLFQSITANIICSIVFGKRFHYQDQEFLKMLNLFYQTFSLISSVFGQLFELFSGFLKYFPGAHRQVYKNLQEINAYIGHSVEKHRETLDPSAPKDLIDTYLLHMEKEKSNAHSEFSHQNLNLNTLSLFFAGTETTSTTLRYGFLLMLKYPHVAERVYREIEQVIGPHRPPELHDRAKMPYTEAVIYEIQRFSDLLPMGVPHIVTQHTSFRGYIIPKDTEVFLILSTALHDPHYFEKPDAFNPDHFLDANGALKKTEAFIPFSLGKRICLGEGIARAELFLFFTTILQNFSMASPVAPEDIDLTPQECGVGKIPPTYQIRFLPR
The series is described as follows: in vitro. The following applies: both, pH 7.4.

A further series concerns the target CYP2C19 (Homo sapiens, UniProt P33261). The series is described as follows: in vitro. The following applies: both, pH 7.4.
A short description of series [1]: Equilibrium dialysis control in DPBS and stability in DPBS, plasma and brain homogenate. As to conditions: for % Recovery / % Unbound: DPBS. The class given is in vitro ADME, mouse. As to the method:
Samples of spiked plasma and blank buffer (Dulbecco's phosphate-buffered saline, DPBS) and spiked brain homogenate and blank DPBS added to opposing sides of a dialysis membrane were collected from triplicate equilibrium dialysis chambers prior to (t=0) and following 1, 2, 4 and 6 hours of incubation at 37° C. […] The LC-MS/MS method(s) for analytes (Compound I-19, Compound A and Compound B) was cross-qualified for the analysis of the DPBS samples.
A secondary stock solution of 200 μM (74.2 ug/mL) will be prepared in DMSO. This secondary stock solution will then be diluted 100-fold to 2 μM ([…]) with male CD-1 mouse plasma and brain homogenate (1:2 v/v brain:Dulbecco's phosphate buffered saline, pH 7-7.2) or buffer (DPBS).
To 2.97 mL aliquots of thawed mouse plasma or brain homogenate warmed to 37° C., 30 ul aliquots of the secondary stock solution of the test compound will be added for final concentrations of 2 μM (0.742 ug/mL). An appropriate volume of warmed buffer (DPBS) will also be spiked with the test compound at a concentration of 2 μM ([…]). Triplicate aliquots (50 μL) of each spiked plasma, brain homogenate and buffer solution will be collected prior to dialysis into labeled 1.5 mL polypropylene tubes and then stored at approximately −80° C. until bioanalysis.
For orientation: Equilibrium dialysis compares concentrations on both sides of a semipermeable membrane.

The next series deals with T2, CYP1A2 (Homo sapiens, UniProt P05177).
T2 sequence (P05177 1-516): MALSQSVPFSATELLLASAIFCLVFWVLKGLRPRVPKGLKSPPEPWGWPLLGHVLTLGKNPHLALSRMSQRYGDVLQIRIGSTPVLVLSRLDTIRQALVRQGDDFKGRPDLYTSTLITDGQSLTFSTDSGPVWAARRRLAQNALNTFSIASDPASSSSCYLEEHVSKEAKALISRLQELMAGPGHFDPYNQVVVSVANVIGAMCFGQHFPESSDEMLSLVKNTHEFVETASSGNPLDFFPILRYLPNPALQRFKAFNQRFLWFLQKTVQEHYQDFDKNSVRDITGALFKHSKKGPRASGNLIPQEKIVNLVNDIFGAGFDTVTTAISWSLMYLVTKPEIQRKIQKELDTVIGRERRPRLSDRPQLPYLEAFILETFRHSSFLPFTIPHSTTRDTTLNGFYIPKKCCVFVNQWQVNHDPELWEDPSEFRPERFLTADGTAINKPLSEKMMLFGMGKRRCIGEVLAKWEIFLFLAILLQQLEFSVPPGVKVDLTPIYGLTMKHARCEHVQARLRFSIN

The mark [2] stands for this setting: dialysis time 1 h, 2 μM, 37° C.
[3] abbreviates: dialysis time 2 h, 2 μM, 37° C.
The mark [4] stands for this setting: dialysis time 4 h, 2 μM, 37° C.
The mark [5] stands for this setting: dialysis time 6 h, 2 μM, 37° C.

CYP2C19, sequence (P33261 whole entry): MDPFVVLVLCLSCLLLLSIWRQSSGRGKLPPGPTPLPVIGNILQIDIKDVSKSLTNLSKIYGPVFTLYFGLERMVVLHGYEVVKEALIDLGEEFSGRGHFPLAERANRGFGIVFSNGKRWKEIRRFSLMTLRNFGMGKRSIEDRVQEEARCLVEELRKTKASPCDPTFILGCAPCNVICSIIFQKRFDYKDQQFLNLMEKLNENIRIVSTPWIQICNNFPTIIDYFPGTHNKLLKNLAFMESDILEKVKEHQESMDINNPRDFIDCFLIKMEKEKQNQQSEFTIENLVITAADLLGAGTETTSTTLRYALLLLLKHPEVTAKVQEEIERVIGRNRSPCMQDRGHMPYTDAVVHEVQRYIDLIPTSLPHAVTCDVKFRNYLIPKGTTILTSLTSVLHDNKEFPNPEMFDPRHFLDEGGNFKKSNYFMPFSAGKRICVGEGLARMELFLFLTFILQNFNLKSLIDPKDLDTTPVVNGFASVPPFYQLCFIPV

With `OC1(c2ccc(Cl)cc2)c2ccccc2C2=NCCN21` (stereo not shown) [Compound A, 5-(4-chlorophenyl)-2,3-dihydroimidazo[1,2-b]isoindol-5-ol, reference compound], the kinetic solubility in “physchem” (32 °C, pH 7.4, aqueous buffer, transport buffer with sucrose for BCRP and MDR1 (pH 7.4, 32° C.)) is at least 50 µM; in the series “physchem” (37 °C, pH 7.4, aqueous buffer, HBSS (pH 7.4) uptake assay buffer), at least 30 µM; in “physchem” (37 °C, pH 7.4, aqueous buffer, transport buffer for BSEP (pH 7.4)), at least 35 µM; in “physchem” (37 °C, pH 8, aqueous buffer, KH (pH 8.0) uptake assay buffer), at least 30 µM. Besides, the inhibition at 10 µM at CYP2B6 turned out to be 62%; against CYP2C19, 16.5%.

As to `Clc1ccc(C2(OCC3OCCO3)c3ccccc3C3=NCCN32)cc1` (stereo not shown) [Compound I-19], in series [1] (2 μM, 37° C., 6 hours), the “Stability in DPBS, plasma and brain homogenate” value is “unstable in all three matrices”. Moreover, the “% unbound in DPBS” value in series [1] (2 μM, 6 hours of dialysis) came out at 94.0±5.12%. In addition, in series [1] (6 hours of dialysis), the “% recovery, DPBS alone” value is given as 20.2±0.461%. Also, the “% Recovery” value in series [1] (setting [2]) came to 64.7 ± 3.04%; in series [1] (setting [3]) it was 55.5 ± 2.08%; in series [1] (setting [4]), 32.6 ± 1.05%; in series [1] (setting [5]) it was 20.2 ± 0.461%. In addition, the “% Unbound” value in series [1] (setting [2]) was 40.3 ± 3.69%; in series [1] (setting [3]) it was 81.9 ± 5.87%; in series [1] (setting [4]), 91.1 ± 4.19%; in series [1] (setting [5]), 94.0 ± 5.12%. For the same compound, the “Inhibition at Highest Test Article Concentration” value at CYP1A2 (1A2, Phenacetin, at 50 μM) amounted to 18.2 at 50 μM %. On CYP1A2 (pooled human liver microsomes, 30 min), the IC50 result is “did not inhibit”.
